As a reminder, the MIC is the smallest concentration in the dilution series that meets the test's criterion for growth inhibition. Low readings indicate inhibition by little substance, high ones a need for much substance.

From ChEMBL document CHEMBL1955755, “Novel imidazo[2,1-b][1,3,4]thiadiazole carrying rhodanine-3-acetic acid as potential antitubercular agents” (2012) come the findings set out here.

In the experiment the test system is Mycobacterium tuberculosis. The experiment is described as follows: Antitubercular activity against Mycobacterium tuberculosis H37Rv ATCC 27294 after 5 days by microplate alamar blue assay. As to conditions: H37Rv ATCC 27294, 120 h. The experiment is classed as functional. On the technique in general: Resazurin is reduced to fluorescent resorufin, in cell work by metabolically active cells.

Structures are written as SMILES. Values after ≈ are worked out from the molar mass of the structure shown.

For the molecule `O=C1NC(=O)/C(=C/c2c(-c3ccccc3)nc3sc(C(F)(F)F)nn23)S1`, inhibition of growth (MIC) required 25 µg/mL (≈ 63.1 µM).
Under `O=C1NC(=O)/C(=C/c2c(-c3ccc(Cl)cc3)nc3sc(C(F)(F)F)nn23)S1` stands 3.12 µg/mL (≈ 7.24 µM); under `O=C1NC(=O)/C(=C/c2c(-c3ccc(Br)cc3)nc3sc(C(F)(F)F)nn23)S1`, 25 µg/mL (≈ 52.6 µM).
For `O=C1NC(=S)S/C1=C\c1c(-c2ccc(Br)cc2)nc2sc(C(F)(F)F)nn12` the value was 3.12 µg/mL (≈ 6.35 µM).
For `O=C1NC(=O)/C(=C/c2c(-c3ccc(F)cc3)nc3sc(C(F)(F)F)nn23)S1` the value was 25 µg/mL (≈ 60.3 µM).
With `Cc1ccc(-c2nc3sc(C(F)(F)F)nn3c2/C=C2\SC(=O)NC2=O)cc1`, the minimal inhibitory concentration (MIC) is 25 µg/mL (≈ 60.9 µM).
For `COc1ccc(-c2nc3sc(C(F)(F)F)nn3c2/C=C2\SC(=O)NC2=O)cc1` the value was 25 µg/mL (≈ 58.6 µM).
The molecule `O=C1NC(=O)/C(=C/c2c(-c3ccc([N+](=O)[O-])cc3)nc3sc(C(F)(F)F)nn23)S1` showed an MIC of 50 µg/mL (≈ 113 µM).
Under `O=C1NC(=S)S/C1=C\c1c(-c2ccccc2)nc2sc(C(F)(F)F)nn12` stands 6.25 µg/mL (≈ 15.2 µM); under `O=C1NC(=S)S/C1=C\c1c(-c2ccc(Cl)cc2)nc2sc(C(F)(F)F)nn12`, 50 µg/mL (≈ 112 µM).
`O=C1NC(=S)S/C1=C\c1c(-c2ccc(F)cc2)nc2sc(C(F)(F)F)nn12` yielded an MIC of 6.25 µg/mL (≈ 14.5 µM).
Under `Cc1ccc(-c2nc3sc(C(F)(F)F)nn3c2/C=C2\SC(=S)NC2=O)cc1` stands 6.25 µg/mL (≈ 14.7 µM).
Under `COc1ccc(-c2nc3sc(C(F)(F)F)nn3c2/C=C2\SC(=S)NC2=O)cc1` stands 25 µg/mL (≈ 56.5 µM); under `O=C1NC(=S)S/C1=C\c1c(-c2ccc([N+](=O)[O-])cc2)nc2sc(C(F)(F)F)nn12`, 50 µg/mL (≈ 109 µM); under `O=C(O)CN1C(=O)/C(=C/c2c(-c3ccccc3)nc3sc(C(F)(F)F)nn23)SC1=S`, 6.25 µg/mL (≈ 13.3 µM).
`O=C(O)CN1C(=O)/C(=C/c2c(-c3ccc(Cl)cc3)nc3sc(C(F)(F)F)nn23)SC1=S` registered an MIC of 3.12 µg/mL (≈ 6.18 µM).
Under `O=C(O)CN1C(=O)/C(=C/c2c(-c3ccc(Br)cc3)nc3sc(C(F)(F)F)nn23)SC1=S` stands 3.12 µg/mL (≈ 5.68 µM); under `O=C(O)CN1C(=O)/C(=C/c2c(-c3ccc(F)cc3)nc3sc(C(F)(F)F)nn23)SC1=S`, 3.12 µg/mL (≈ 6.39 µM); under `O=C(O)CN1C(=O)/C(=C/c2c(-c3ccc([N+](=O)[O-])cc3)nc3sc(C(F)(F)F)nn23)SC1=S`, 25 µg/mL (≈ 48.5 µM).
Under `Cc1ccc(-c2nc3sc(C(F)(F)F)nn3c2/C=C2\SC(=S)N(CC(=O)O)C2=O)cc1` stands 3.12 µg/mL (≈ 6.44 µM).
Under `COc1ccc(-c2nc3sc(C(F)(F)F)nn3c2/C=C2\SC(=S)N(CC(=O)O)C2=O)cc1` stands 1.56 µg/mL (≈ 3.12 µM); under `NNC(=O)c1ccncc1` [ISONIAZID], 1.56 µg/mL (≈ 11.4 µM); under `CO[C@H]1/C=C/O[C@@]2(C)Oc3c(C)c(O)c4c(O)c(c(/C=N/N5CCN(C)CC5)c(O)c4c3C2=O)NC(=O)/C(C)=C\C=C\[C@H](C)[C@H](O)[C@@H](C)[C@@H](O)[C@@H](C)[C@H](OC(C)=O)[C@@H]1C` [RIFAMPIN], 0.78 µg/mL (≈ 0.948 µM).
